Laboratory results from ChEMBL document CHEMBL5252628, “Novel xanthone antibacterials: Semi-synthesis, biological evaluation, and the action mechanisms” (Bioorg Med Chem, 2023).
Values after ≈ are worked out from the molar mass of the structure shown.

Experiments:
Salmonella enteritidis = test: Antibacterial activity against Salmonella enteritidis SM012 assessed as inhibition of bacterial growth incubated for 18 to 24 hrs by broth microdilution assay; assay type: functional, Salmonella enterica subsp. enterica serovar Enteritidis; conditions: Salmonella enterica, time 18-24 hrs
Staphylococcus aureus [1] = test: Antibacterial activity against Staphylococcus aureus SH-27 assessed as inhibition of bacterial growth incubated for 18 to 24 hrs by broth microdilution assay; assay type: functional; conditions: time 18-24 hrs
Staphylococcus aureus [2] = test: Antibacterial activity against methicillin-resistant Staphylococcus aureus 2 assessed as inhibition of bacterial growth incubated for 18 to 24 hrs by broth microdilution assay; assay type: functional; conditions: time 18-24 hrs
Staphylococcus aureus [3] = test: Antibacterial activity against Staphylococcus aureus ATCC 29213 assessed as inhibition of bacterial growth incubated for 18 to 24 hrs by broth microdilution assay; assay type: functional; conditions: time 18-24 hrs
Staphylococcus aureus [4] = test: Antibacterial activity against Staphylococcus aureus ATCC 33591 assessed as inhibition of bacterial growth incubated for 18 to 24 hrs by broth microdilution assay; assay type: functional; conditions: time 18-24 hrs
Escherichia coli = test: Antibacterial activity against Escherichia coli ATCC 25922 assessed as inhibition of bacterial growth incubated for 18 to 24 hrs by broth microdilution assay; assay type: functional; conditions: time 18-24 hrs
Staphylococcus aureus [5] = test: Antibacterial activity against Staphylococcus aureus ATCC 43300 assessed as inhibition of bacterial growth incubated for 18 to 24 hrs by broth microdilution assay; assay type: functional; conditions: time 18-24 hrs
[6] = Hemolytic activity in rabbit RBC assessed as hemolysis incubated for 1 hr by microtiter plate method; assay type: toxicity, cell-based, Oryctolagus cuniculus, Erythrocyte; conditions: red blood cells
L02 = test: Cytotoxicity against human L02 cells assessed as reduction in cell viability at 25 ug/ml incubated for 72 hrs by CCK-8 assay; assay type: toxicity, cell-based; conditions: l02, 72 h, dose 25 µg/ml
A549 = test: Cytotoxicity against human A549 cells assessed as reduction in cell viability at 25 ug/ml incubated for 72 hrs by CCK-8 assay; assay type: toxicity, cell-based; conditions: a549, 72 h, dose 25 µg/ml
Staphylococcus aureus [7] = test: Induction of drug resistance in Staphylococcus aureus ATCC 29213 assessed as fold increase in MIC measured after 20 passage; assay type: functional

Compound | MIC (Salmonella enteritidis) [µg/mL] | MIC (Staphylococcus aureus [1]) [µg/mL] | MIC (Staphylococcus aureus [2]) [µg/mL] | MIC (Staphylococcus aureus [3]) [µg/mL] | MIC (Staphylococcus aureus [4]) [µg/mL] | MIC (Escherichia coli) [µg/mL] | MIC (Staphylococcus aureus [5]) [µg/mL] | HC50 at 1 h [6] [µg/mL] | Activity (L02) | Activity (A549) | fold change (FC) (Staphylococcus aureus [7])
C=CCOc1cc2oc3cc(OCC=C)c(OC)c(CC=C(C)C)c3c(=O)c2c(O)c1CC=C(C)C | > 256 | > 256 | > 256 | > 256 | > 256 | > 256 | > 256 |  |  |  | 
COc1c(OC(C)=O)cc2oc3cc(OC(C)=O)c(CC=C(C)C)c(O)c3c(=O)c2c1CC=C(C)C | > 256 | > 256 | > 256 | > 256 | > 256 | > 256 | > 256 |  |  |  | 
C=CCOc1cc2oc3cc(O)c(CC=C(C)C)c(O)c3c(=O)c2c(CC=C(C)C)c1OC | > 256 | 2 (≈ 4.44 µM) | > 256 | > 256 | 256 (≈ 568 µM) | > 256 | 256 (≈ 568 µM) | 403 | Non-Toxic | Non-Toxic | 
COc1c(O)cc2oc3cc(OC(C)=O)c(CC=C(C)C)c(O)c3c(=O)c2c1CC=C(C)C | > 256 | > 256 | > 256 | > 256 | > 256 | > 256 | > 256 |  |  |  | 
COc1c(OCc2ccccc2)cc2oc3cc(OCc4ccccc4)c(CC=C(C)C)c(OCc4ccccc4)c3c(=O)c2c1CC=C(C)C | > 256 | > 256 | > 256 | > 256 | > 256 | > 256 | > 256 |  |  |  | 
COc1c(O)cc2oc3cc(OC(=O)C(C)C)c(CC=C(C)C)c(O)c3c(=O)c2c1CC=C(C)C | > 256 | > 256 | > 256 | > 256 | > 256 | > 256 | > 256 |  |  |  | 
COc1c(OCCCCCCO)cc2oc3cc(OCCCCCCO)c(CC=C(C)C)c(O)c3c(=O)c2c1CC=C(C)C | > 256 | > 256 | > 256 | > 256 | > 256 | > 256 | > 256 |  |  |  | 
C=CCOc1cc2oc3cc(OCC=C)c(OC)c(CC=C(C)C)c3c(=O)c2c(OC(C)=O)c1CC=C(C)C | > 256 | > 256 | > 256 | > 256 | > 256 | > 256 | > 256 |  |  |  | 
Cc1onc(-c2ccccc2)c1C(=O)N[C@@H]1C(=O)N2[C@@H]1SC(C)(C)[C@@H]2C(=O)O [OXACILLIN] |  |  |  |  |  |  |  |  |  |  | 64
C=CCOc1cc2oc3cc(OCC=C)c(OC)c(CC=C(C)C)c3c(=O)c2c(OC(=O)C(C)C)c1CC=C(C)C | > 256 | > 256 | > 256 | > 256 | > 256 | > 256 | > 256 |  |  |  | 
COc1c(OC(=O)C(C)C)cc2oc3cc(OC(=O)C(C)C)c(CC=C(C)C)c(O)c3c(=O)c2c1CC=C(C)C | > 256 | > 256 | > 256 | > 256 | > 256 | > 256 | > 256 |  |  |  | 
